Test results published in patent US20170000749A1, “Methods for Treating Cognitive Disorders Using Inhibitors of Histone Deacetylase” (Forum Pharmaceuticals, Inc., priority 2008, published 2017).
Where two headings read alike, the source gives them in different places.

Assays:
[1] = tested on: HDAC activity in primary mouse cortical cultures; assay: Whole-Cell Histone Deacetylase (HDAC) Inhibition Assay in Primary Mouse Cortical Cultures; type: cell-based; conditions: whole-cell (WC), mouse cortical neurons, read-out: HDAC Inhibition (IC50 μM) WC mouse cortical neurons
Procedure: Primary neocortical cultures are established through the dissection of the neocortex from E17 embryos harvested from time-pregnant Balb/C mice. Following dissection, the neocortical tissue specimens undergo digestion by incubation at 37° C. for 10 minutes in dissection medium (1×HBSS/10 mM HEPES/1 mM Sodium Pyruvate) supplemented with (0.25%) Trypsin and (0.1%) DNase I. Digested tissue is washed and resuspended in plating medium (NeuroBasal/10% HS/0.5 mM L-Glutamine (Invitrogen Corporation)) for trituration. Additional plating medium is added, and the contents are passed over a 70 um cell-strainer. The cell-density is quantified using a hemacytometer, and dilutions are made to allow for the plating of 50000 cells/well/100 uL in 96-well PDL-coated plates. Plates are incubated for 4-5 hours in 37° C./5% CO2-incubator, after which time the entire volume is exchanged to feeding medium (NeuroBasal/2% B-27 Serum-free supplement/0.5 mM L-Glutamine/1% Penicillin-Streptomycin (Invitrogen Corporation)). The cultures undergo two 50% fresh feeding medium exchanges at 3 days in vitro (DIV3), and again at DIV7.
Compounds for testing are resuspended in dimethyl sulphoxide (DMSO), and further diluted in DMSO for a ten-point dose-response curve, with appropriate controls. Each master plate is assayed in triplicate. […] Three DIV9 culture plates are leveled to 50 uL/well, onto which each has overlaid 50 uL/well of the diluted daughter plate. The plates are returned to the 37° C./5% CO2-incubator for 16-18 hours.
The next step of the assay involves the exposure of a HDAC colorimetric substrate, comprising an acetylated lysine side chain, to the compound-treated neuronal cultures. Based on the ability of the compound to inhibit HDAC activity in the neuronal cultures, the substrate is deacetylated by HDACs, and subsequently sensitized. […] Compound-incubated culture plates are again leveled to 50 uL/well and 2 uL/well of 7.5 mM BOC-Lys (Ac)-AMC substrate is added and thoroughly mixed. Plates are returned to the 37° C./5% CO2-incubator for 1 hour.
The final addition to the culture plates entails treatment with a Fluor de Lys™-based developer (BIOMOL Research Laboratories, Inc.) to produce a fluorophore, which is analyzed using a spectrophotometer. The developer solution (1×Fluor de Lys™/1% NP-40/1 uM TSA in HDAC Buffer Solution) is prepared, and 50 uL/well is added to each of the wells of the culture plates. […] The plates are returned to the 37° C./5% CO2-incubator for 10-15 minutes, after which time, they are removed and set in the dark at room temperature for 5-10 minutes.
Primary neocortical cultures were established through the dissection of the neocortex from E17 embryos harvested from time-pregnant Balb/C mice. Following dissection, the neocortical tissue specimens underwent digestion by incubation at 37° C. for 10 minutes in dissection medium (1×HBSS/10 mM HEPES/1 mM Sodium Pyruvate) supplemented with (0.25%) Trypsin and (0.1%) DNase I. Digested tissue was washed and resuspended in plating medium (NeuroBasal/10% HS/0.5 mM L-Glutamine (Invitrogen Corporation)) for trituration. Additional plating medium was added, and the contents passed over a 70 um cell-strainer. The cell-density was quantified using a hemacytometer, and dilutions made to allow for the plating of 50000 cells/well/100 uL in 96-well PDL-coated plates. Plates were incubated for 4-5 hours in 37° C./5% CO2-incubator, after which time the entire volume was exchanged to feeding medium (NeuroBasal/2% B-27 Serum-free supplement/0.5 mM L-Glutamine/l % Penicillin-Streptomycin (Invitrogen Corporation)). The cultures underwent two 50% fresh feeding medium exchanges at 3 days in vitro (DIV3), and again at DIV7.
Compounds for testing were resuspended in dimethyl sulphoxide (DMSO), and further diluted in DMSO for a ten-point dose-response curve, with appropriate controls. Each master plate was assayed in triplicate.

[2] = target: one or more of HDAC-1, HDAC-2, HDAC-3, HDAC-4, HDAC-5, HDAC-6, HDAC-7, HDAC-8, HDAC-9, HDAC-10 and HDAC-11; assay: Inhibition of Histone Deacetylase Enzymatic Activity (Boc-Lys(Ac)-AMC substrate, Fluor-de-Lys developer); type: biochemical; conditions: read-out: HDAC Inhibition (IC50 μM) HDAC Enzyme
Procedure: The following protocol is used to assay the compounds of the disclosure.
The mixture is pre-incubated for 5 minutes at room temperature. The reaction is started by bringing the temperature to 37° C. and adding 16 μl substrate. Total reaction volume is 50 μl.
In the Tables 8, 9 and 10, A≦0.05 μM; 0.05 μM<B≦0.1 μM; 0.1 μM<C≦1 μM; and 1 μM<D≦10 μM.

| Structure (SMILES) | IC50 ([1]; Table 10) [µM] | IC50 ([2]; Table 10) [µM] | also measured |
| --- | --- | --- | --- |
| O=C(NO)c1cnc(N2CCCN(c3ncc(C(F)(F)F)cc3Cl)CC2)nc1 | 5 to 15 | < 0.05 | – |
| O=C(NO)c1ccc(OCCN2C(=O)c3cc(F)ccc3Oc3ccccc32)cc1 | < 1 | < 0.05 | – |
| O=C(NO)c1ccc(OCCN2C(=O)c3ccccc3Oc3cc(Cl)ccc32)cc1 | 1 to 5 | < 0.05 | – |
| O=C(NO)c1ccc(OCC(=O)N2Cc3ccccc3Oc3ccccc32)cc1 | 1 to 5 | 0.1 to 1 | – |
| O=C(NO)c1ccc(C2=Nc3ccccc3S(=O)(=O)c3ccccc32)cc1 | – | – | IC50 ([1]; Table 8): 5 to 15 µM; IC50 ([2]; Table 8): 1 to 10 µM |
| O=C(NO)c1ccc(C2=Nc3ccccc3[S+]([O-])c3ccccc32)cc1 (centres unmarked) | – | – | IC50 ([1]; Table 8): 1 to 5 µM; IC50 ([2]; Table 8): 0.1 to 1 µM |
| O=C(NO)c1ccc(C2=Nc3cncnc3N3CCc4cccc2c43)cc1 | – | – | IC50 ([1]; Table 8): 5 to 15 µM; IC50 ([2]; Table 8): 0.1 to 1 µM |
| O=C(NO)c1cnc(N2C[C@@H]3C[C@H]2CN3c2cccc(S(F)(F)(F)(F)F)c2)nc1 | – | – | IC50 ([1]; Table 9): 1 to 5 µM; IC50 ([2]; Table 9): < 0.05 µM |
| O=C(CCCCCCCON=C1c2ccccc2CCc2ccccc21)NO | 1 to 5 | 0.1 to 1 | – |
| O=C(CCCCCCON=C1c2ccccc2CCc2ccccc21)NO | 1 to 5 | 0.1 to 1 | – |
| O=C(CCCCCON=C1c2ccccc2CCc2ccccc21)NO | 5 to 15 | 0.1 to 1 | – |
| O=C(CCCON=C1c2ccccc2CCc2ccccc21)NO | 5 to 15 | 0.1 to 1 | – |
| O=C(/C=C/c1ccc(CNC2c3ccccc3CCc3ccccc32)cc1)NO | 5 to 15 | 0.05 to 0.1 | – |
| O=C(CCCCCON=c1c2ccccc2ccc2ccccc12)NO | 5 to 15 | 0.1 to 1 | – |
| O=C(CCCCON=C1c2ccccc2CCc2ccccc21)NO | 5 to 15 | 0.1 to 1 | – |
| O=C(NO)c1cnc(N2CCN(C3c4ccccc4CCc4ccccc43)CC2)nc1 | 5 to 15 | 0.1 to 1 | – |
| O=C(NO)c1cnc(NCC2c3ccccc3CCc3ccccc32)nc1 | 5 to 15 | < 0.05 | – |

| Structure (SMILES) | IC50 ([1]; Table 10) [µM] | IC50 ([2]; Table 10) [µM] | also measured |
| --- | --- | --- | --- |
| CN(c1ncc(C(=O)NO)cn1)C1c2ccccc2CCc2ccccc21 | 1 to 5 | < 0.05 | – |
| O=C(NO)c1cnc(NC2c3ccccc3C=Cc3ccccc32)nc1 | < 1 | < 0.05 | – |
| O=C(CCCCCCC(=O)NC1c2ccccc2C=Cc2ccccc21)NO | 1 to 5 | 0.1 to 1 | – |
| O=C(CCCCCC(=O)NC1c2ccccc2C=Cc2ccccc21)NO | 1 to 5 | 0.1 to 1 | – |
| O=C(NO)c1cnc(NC2c3ccccc3C=C(F)c3ccccc32)nc1 (centres unmarked) | < 1 | < 0.05 | – |
| O=C(NO)c1cnc(C2c3ccccc3C=Cc3ccccc32)nc1 | > 15 | 0.1 to 1 | – |
| O=C(NO)c1cnc(N2CC3CC2CO3)nc1 (centres unmarked) [2-(2-oxa-5-azabicyclo[2.2.1]heptan-5-yl)-N-hydroxypyrimidine-5-carboxamide] | – | – | IC50 ([1]; Table 9): 1 to 5 µM; IC50 ([2]; Table 9): 0.1 to 1 µM |
| N#Cc1cccc(N2CC3CC2CN3c2ncc(C(=O)NO)cn2)c1 (centres unmarked) [2-(5-(3-cyanophenyl)-2,5-diazabicyclo[2.2.1]heptan-2-yl)-N-hydroxypyrimidine-5-carboxamide] | – | – | IC50 ([1]; Table 9): < 1 µM; IC50 ([2]; Table 9): < 0.05 µM |
| O=C(NO)c1cnc(NC2c3ccccc3-c3ccccc32)nc1 [2-(9H-fluoren-9-ylamino)-N-hydroxypyrimidine-5-carboxamide] | 5 to 15 | 0.1 to 1 | – |
| O=C(NO)c1cnc(N2C[C@@H]3C[C@H]2CN3)nc1 [2-((1S,4S)-2,5-diazabicyclo[2.2.1]heptan-2-yl)-N-hydroxypyrimidine-5-carboxamide] | – | – | IC50 ([1]; Table 9): 5 to 15 µM; IC50 ([2]; Table 9): 0.1 to 1 µM |
| O=C(NO)c1cnc(N2C[C@@H]3C[C@H]2CN3c2ccc3c(c2)OC(F)(F)O3)nc1 [2-((1S,4S)-5-(2,2-difluorobenzo[d][1,3]dioxol-5-yl)-2,5-diazabicyclo[2.2.1]heptan-2-yl)-N-hydroxypyrimidine-5-carboxamide] | – | – | IC50 ([1]; Table 9): 1 to 5 µM; IC50 ([2]; Table 9): < 0.05 µM |
| O=C(NO)c1cnc(N2C[C@@H]3C[C@H]2CN3C(=O)C(c2ccccc2)c2ccccc2)nc1 [2-((1S,4S)-5-(2,2-diphenylacetyl)-2,5-diazabicyclo[2.2.1]heptan-2-yl)-N-hydroxypyrimidine-5-carboxamide] | – | – | IC50 ([1]; Table 9): 1 to 5 µM; IC50 ([2]; Table 9): 0.05 to 0.1 µM |
| O=C(NO)c1cnc(N2C[C@@H]3C[C@H]2CN3c2ccc(C(F)(F)F)cc2F)nc1 [2-((1S,4S)-5-(2-fluoro-4-(trifluoromethyl)phenyl)-2,5-diazabicyclo[2.2.1]heptan-2-yl)-N-hydroxypyrimidine-5-carboxamide] | – | – | IC50 ([1]; Table 9): 1 to 5 µM; IC50 ([2]; Table 9): < 0.05 µM |
| O=C(NO)c1cnc(N2C[C@@H]3C[C@H]2CN3c2cc(C(F)(F)F)cc(C(F)(F)F)c2)nc1 [2-((1S,4S)-5-(3,5-bis(trifluoromethyl)phenyl)-2,5-diazabicyclo[2.2.1]heptan-2-yl)-N-hydroxypyrimidine-5-carboxamide] | – | – | IC50 ([1]; Table 9): 1 to 5 µM; IC50 ([2]; Table 9): < 0.05 µM |
| CN(C)CCOc1ccc2c(c1)C(c1ccc(C(=O)NO)cc1)=Nc1ccccc1O2 [(Z)-4-(2-(2-(dimethylamino)ethoxy)dibenzo[b,f][1,4]oxazepin-11-yl)-N-hydroxybenzamide] | – | – | IC50 ([1]; Table 8): > 15 µM |
| O=C(NO)c1ccc(N2C[C@@H]3C[C@H]2CN3c2nccc(C(F)(F)F)n2)cc1 [N-hydroxy-4-((1S,4S)-5-(4-(trifluoromethyl)pyrimidin-2-yl)-2,5-diazabicyclo[2.2.1]heptan-2-yl)benzamide] | – | – | IC50 ([1]; Table 9): 1 to 5 µM |

Now from value to compound, other results behind:

| IC50 ([1]; Table 10) [µM] | IC50 ([2]; Table 10) [µM] | Structure (SMILES) | also measured |
| --- | --- | --- | --- |
| < 1 | 0.05 to 0.1 | O=C(NO)c1ccc(OCCN2C(=O)c3ccccc3Oc3ccccc32)c(F)c1 | – |
| 5 to 15 | < 0.05 | O=C(NO)c1ccc(CNC2c3ccccc3CCc3ccccc32)cc1 | – |
| 5 to 15 | 0.1 to 1 | O=C(NO)c1ccc(CON=C2c3ccccc3CCc3ccccc32)cc1 | – |
| 5 to 15 | 0.1 to 1 | O=C(NO)c1ccc(ON=C2c3ccccc3CCc3ccccc32)cc1 | – |
| 1 to 5 | 0.1 to 1 | O=C(CCCCCCN1c2ccccc2Oc2ccccc2S1(=O)=O)NO | – |
| < 1 | < 0.05 | O=C(NO)c1ccc(NC2c3ccccc3CCc3ccccc32)nc1 | – |
| > 15 | 0.1 to 1 | O=C(NO)c1cccc(OCCN2C(=O)c3ccccc3Oc3ccccc32)c1 | – |
| < 1 | < 0.05 | O=C(NO)c1ccc(OCCN2C(=O)c3ccccc3Oc3ccccc32)cc1 | – |
| < 1 | < 0.05 | CN1CCC2=C(C1)Oc1ccccc1N(CCOc1ccc(C(=O)NO)cc1)C2=O | – |
| < 1 | < 0.05 | O=C(NO)c1ccc(OCCN2C(=O)CCOc3ccccc32)cc1 | – |
| 1 to 5 | < 0.05 | O=C(NO)c1ccc(OCCN2CCOc3ccccc3C2=O)cc1 | – |
| < 1 | < 0.05 | O=C(NO)c1ccc(OCCN2C(=O)c3cccnc3Oc3ccccc32)cc1 | – |
| < 1 | < 0.05 | O=C(NO)c1ccc(OCCN2C(=O)c3ccncc3Oc3ccccc32)cc1 | – |
| 1 to 5 | < 0.05 | O=C(/C=C/c1ccc(CN2C(=O)c3ccccc3Oc3ccccc32)cc1)NO | – |
